According to patent publication US4377687A, “Analogs of 1-(2-chloroethyl)-1-nitroso-3-(cycloheyl)-urea substituted by heterocyclic rings or alkyl radicals” (Stiftung Deutsches Krebsforschungszentrum, priority 1978, dated 1983):
Read-outs that look alike come from different tables or passages of the source.

Experiments:
[1] = Stability of the substance; format: physicochemical
[2] = Water solubility
[3] = tested on: Yoshida sarcoma; format: in vivo, rat (male Sprague-Dawley rats); conditions: for M = median survival time: i.p. day 8; for effect on survival time / life expectancy (in words): experiments 1-4, MeCCNU 45, morpholino-CNU 28 (exp. 3 and 5), dimethylmorpholine-CNU 45, piperidino-CNU 15, picolyl-3-CNU 25, picolyl-3-CNU.HCl 25 mg/kg
Protocol: The chemotherapeutic activity of nitrosoureas was compared in antitumor tests using Yoshida sarcoma ascited cells implanted into the wall of the descending colon in Sprague-Dawley rats.
(§1) Male Sprague-Dawley rats were used in the experiments. Yoshida sarcome in ascites form was maintained in the same strain of rats by serial intraperitoneal injection of 0,5 ml of ascites fluid.
(§2) 3×10^6 cells were injected into the colon wall in a manner known per se. The chemotherapeutic treatment was carried out on the eighth day after implantation of the tumor cells.
(§3) Water-insoluble compounds were dissolved in Cremophor EL/ethanol/physiological saline (20:20:60: vol.%). Water-soluble substances were dissolved in physiological saline. Cremophor EL is a surfactant on the basis of polyethoxylated castor oil. All test compounds were administered introperitoneally. The nitrosoureas were applied at approximately equitoxic doses corresponding to about 80% of the acute LD50 values observed in healthy rats of the same strain over a 28-day observation period.
(§4) Each experiment involved an untreated control group and a varying number of treated groups. Individual survival times were counted as days after tumor inoculation. At the time of death a record of whether an animal was tumor-free or not was made. All animals alive 120 days after tumor inoculation were killed. Animals that according to macroscopic examination had no tumor at the end of the experiment were considered as cured. Since in a number of control rats also no tumors occurred after 120 days the differences in cures between controls and treated animals rather than absolute numbers are reported. Differences in survival were evaluated statistically by individual comparisons between treated rats and controls using a nonparametric log-rank test (Kalbfleisch and Prentice, The statistical analysis of failure time data, Wiley, New York, 1979). Numerical evaluation was performed using a computerized system.

[4] = tested on: Yoshida sarcoma; format: in vivo, rat (male Sprague-Dawley rats); conditions: i.p.
[5] = Mean animal weight / weight gain after tumor transplantation; format: in vivo, rat (Sprague-Dawley rats); conditions: CP 70 (exp. 1-3), BCNU 25, MeCCNU 45 (exp. 1), picolyl-3-CNU 25, its HCl 25 (exp. 2), morpholino-CNU 28, piperidino-CNU 15 (exp. 3), dimethylmorpholino-CNU 45 mg/kg (exp. 4)
Protocol: as §1, §2, §3
In all treated animals and at all doses tested the mean weight gain was lower than in the controls. Table 3 gives the mean animal weights measured 50 and 100 days after tumor transplantation in experiments 1 to 5.

[6] = Toxicity in treated tumor-bearing rats (Yoshida sarcoma experiments); format: in vivo, rat (Sprague-Dawley rats); conditions: at the doses tested
Protocol: as §1, §2, §3, §4

[7] = tested on: rat leukemia L 5222; assay: Chemotherapeutic activity against rat Leukemia L5222; format: in vivo, rat (BD IX rats); conditions: rat, in vivo
Protocol: Chemotherapeutic activity of methylformylamino-CNU against rat Leukemia L5222 (CNU=chloroethyl-nitroso-urea)
The compound to be tested was solved in Chremophor EL/ethanol/physiological saline and a single dose was administered intraperitoneally into tumor inoculated BD IX rats. The experiment involved an untreated control group and a number of treated groups. The doses used and the effects of the praeterminal treatment are summarized in the following Table from which the cures (animals free of tumor after 120 days) and the increase in life span (ILS, expressed as percentage of survival of the treated test group to the untreated control group) are evident.
Considering the fact that the true measure of the effectiveness of a drug against a neoplastic desease is the ability of the drug to kill the neoplastic cells at dosages that are not toxic to the host animal and that a quantitative evaluation of drug action is usually obtained by using the L1210 leucemia system in mice, it will be realized that in this test the tumor cells are injected into the peritoneal cavity of a mouse which thereafter is treated with the drug to be tested at a very early time after the inoculation of the tumor, i.e. at the first or second day after tumor inoculation. Thus such screening is done under very favourable test conditions for the drug. Contrary thereto the administration of the drug to be tested is performed relatively late in the case of the rat leucemia L5222, i.e. at the 8th day after tumor inoculation. It must, therefore, be taken that at that time tumor cells have colonized the cerebral region, i.e. the meninges, so that cures can only be obtained if the drug has an activity high enough to kill the leucemia cells in the cerebral region in a praeterminal state. Thus by far more severe test conditions are involved when treating rat leucemia L5222 or type Yoshida sarcoma which is a tumor model and which are hard to influence by known drugs.

[8] = Experiment 3, CP 70, morpholino-CNU 28, piperidino-CNU 15 mg/kg
[9] = Experiment 3, CP 70, morpholino-CNU 28, piperidino-CNU 15 mg/kg, 30 initial animals each
[10] = Experiment 5, CP 70, picolyl-3-CNU.HCl 25, morpholino-CNU 28, piperidino-CNU 15 mg/kg
[11] = Experiment 5, CP 70, picolyl-3-CNU.HCl 25, morpholino-CNU 28, piperidino-CNU 15 mg/kg, 15 initial animals (picolyl-3-CNU.HCl 14)
[12] = Experiment 5, CP 70, piperidino-CNU 15 mg/kg

NNC(=O)N(CCCl)N=O [Example 8, 1-(2-chloroethyl)-1-nitroso-3-amino-urea]
stability (in words) [1]: slightly stable | stability on storage (in words) ([1]; stored in the deep freezing compartment at -30° C.): stable for a few days

O=NN(CCCl)C(=O)NN1CCCCC1 [Piperidino-CNU, 1-(2-chloroethyl)-1-nitroso-3-(1-piperidine)urea]
water solubility (in words) [2]: water-soluble | tumor-free animals at the end of the experiment (in words) ([3]; 120 days): remarkable increase in tumor-free animals | increase in tumor-free animals (cures) above controls ([3]; 120 days, CP (exp. 1-3), BCNU, MeCCNU 45, dimethylmorpholine-CNU 45, piperidino-CNU 15, picolyl-3-CNU.HCl 25 mg/kg): 21% | % M (median survival time, untreated control = 100) [3, 8]: > 686% | D1-120 = difference (%) between tf1-120 of treated and untreated animals [3, 8]: 21% | D120 = difference (%) between tf120 of treated and untreated animals [3, 8]: 21% | tf1-120 (%) (tf120 + animals dying of toxicity) [3, 8]: 50% | tf120 (%) (animals surviving day 120 without tumor) [3, 8]: 50% | tf1-120, No. (tf120 + animals dying of toxicity) [3, 9]: 15 | tf120, No. (animals surviving day 120 without tumor) [3, 9]: 15 | M = median survival time [3, 8]: > 120 days | effect on the survival time on retest (in words) ([3]; Experiment 5, cyclophosphamide as a standard): significant increasing effect on the survival time | % M (median survival time, untreated control = 100) [3, 10]: 160% | D1-120 = difference (%) between tf1-120 of treated and untreated animals [3, 10]: 13% | D120 = difference (%) between tf120 of treated and untreated animals [3, 10]: 7% | tf1-120, No. (tf120 + animals dying of toxicity) [3, 11]: 2 | tf120, No. (animals surviving day 120 without tumor) [3, 11]: 1 | tf1-120 (%) (tf120 + animals dying of toxicity) [3, 12]: 13% | tf120 (%) (animals surviving day 120 without tumor) [3, 12]: 7% | M = median survival time [3, 10]: 16 days | effect on survival time / life expectancy (in words) [3]: significantly increased the survival time | effect on survival time / life expectancy (in words) ([3]; listed as piperidino-CNU): significant increase in survival time | chemotherapeutic activity against Yoshida sarcoma in the colon wall (in words) ([3]; i.p.): active | concentration reached in the distal colon (in words) [4]: reached the distal colon at chemotherapeutically effective concentrations | Mean animal weight on day 50 ([5]; day 50 after tumor transplantation): 340 g | Mean animal weight on day 100 ([5]; day 100 after tumor transplantation): 410 g | toxicity (in words) [6]: No toxic effects were seen | toxicity (in words) ([6]; listed as piperidino-CNU): less toxic than cyclophosphamide | effectiveness in rat leukemia L 5222 (in words) [7]: very good effectiveness
